“Also recorded” adds a separate entry of the source.
How the values were obtained:
HiBiT-ERα = biological target: T1, HiBiT-ERα (Homo sapiens, UniProt P03372); assay: Nano-BiT binary luminescence complementation, transfected HEK-293 cells, total receptor; assay type: cell-based
T1 sequence (P03372 1-595): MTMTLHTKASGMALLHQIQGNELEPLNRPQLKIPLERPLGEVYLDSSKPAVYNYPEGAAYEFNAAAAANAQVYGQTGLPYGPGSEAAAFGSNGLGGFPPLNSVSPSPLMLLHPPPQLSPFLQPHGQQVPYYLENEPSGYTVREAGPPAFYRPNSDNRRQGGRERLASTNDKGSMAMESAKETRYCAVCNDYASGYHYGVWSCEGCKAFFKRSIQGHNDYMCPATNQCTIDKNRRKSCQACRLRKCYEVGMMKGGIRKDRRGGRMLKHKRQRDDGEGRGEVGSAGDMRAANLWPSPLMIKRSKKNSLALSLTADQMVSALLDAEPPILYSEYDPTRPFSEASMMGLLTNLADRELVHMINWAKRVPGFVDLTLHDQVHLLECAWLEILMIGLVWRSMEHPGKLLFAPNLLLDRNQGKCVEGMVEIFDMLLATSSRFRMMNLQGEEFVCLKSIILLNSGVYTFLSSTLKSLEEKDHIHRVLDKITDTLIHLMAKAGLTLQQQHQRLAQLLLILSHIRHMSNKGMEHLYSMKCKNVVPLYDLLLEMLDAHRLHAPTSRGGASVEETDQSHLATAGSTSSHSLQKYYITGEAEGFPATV
Experimental: FIG. 26. […] HEK-293 cells (ERα^-, GPER^-) were transiently transfected with 50 ng HiBiT-GPER or HiBiT-ER plus pcDNA3.1(+) zeo carrier plasmid. […] Results shown represent the mean ± S.E. of three independent experiments.
(§1) FIG. 28. […] Total receptor was then measured by binary luminescence complementation in detergent-permeabilized cells. […] Total receptor was then quantified by binary luminescence complementation. Representative luminescence data and mean values and SDs derived from three independent experiments are shown.
(§2) Transient transfections and binary Nano-Bit ™ luminescence assays. Total HiBiT-tagged GPER or ER estrogen receptors were detected in detergent-permeabilized cells by binary luminescence complementation with recombinant LgBit and substrate using the Nano-Glo HiBiT Extracellular Detection system kit (Promega Corporation, Madison, Wl). In brief, HEK293 cells (0.75 × 10^6) were seeded in 35 mm tissue culture dishes and 24 hours later were transiently transfected with 50 ng of HiBiT-GPER or HiBiT-ERa and 950 ng of pcDNA3.1(+) zeo carrier plasmid using Lipofectamine 2000 (Invitrogen, Carlsbad, CA). The next day transfected cells were harvested by trypsinization and seeded at a density of 10^4 cells/well in 96-well poly-L-lysine-coated Greiner white-bottomed microplates. On the following day, cell culture media was aspirated and replaced with 100 µL of serum-free PRF-DF12 containing E2-PROTAC, partial-PROTAC, or vehicle at various concentrations and for indicated time intervals at 37° C. […] Following treatment, total HiBiT-tagged receptor was measured in cells which were permeabilized in 0.05% Triton X-100 using HiBiT complementation reagent consisting of LgBiT protein and Nano-Gio® HiBiT substrate. Luminescence was measured using the Infinite 200 PRO multimode microplate reader from Tecan (Raleigh, NC) and reported as Relative Luminescent Units (RLU). All samples were measured in triplicate and expressed as the mean value plus or minus standard deviation.

GPER = GPER (Homo sapiens, UniProt Q99527); assay: Immunostaining of surface and intracellular GPER in SKBR3 cells; details: SKBR3, 100 uM, 1 hour
HiBiT-GPER = HiBiT-GPER (Homo sapiens, UniProt Q99527); assay: Nano-BiT binary luminescence complementation, transfected HEK-293 cells, total receptor; assay type: cell-based
Experimental: FIG. 26. […] HEK-293 cells (ERα^-, GPER^-) were transiently transfected with 50 ng HiBiT-GPER or HiBiT-ER plus pcDNA3.1(+) zeo carrier plasmid. […] (C) Histogram depicting total HiBiT-GPER and HiBiT-ER following a 1-hour treatment at […] drug or control. […] Results shown represent the mean ± S.E. of three independent experiments.
as §1, §2

[1] = biological target: T2, HA-GPER (recombinant GPER) (Homo sapiens, UniProt Q99527); assay: Surface receptor immunostaining / HA immunoblot in HA-GPER cells (Example 1); assay type: cell-based; details: 100 uM, 16 hr
T2 construct: expressed in transfected cells

MCF-7 cells = assay: Cell cycle analysis, propidium iodide, flow cytometry; assay type: cell-based, human; details: MCF-7, 10 µM, 24 hours
Excerpt: (§3) FIG. 30. E2-PROTACs promote estrogen receptor-dependent G2/M arrest. E2-PROTAC induced G2/M arrest in human breast cancer cell lines expressing membrane and/or intracellular estrogen receptors. […] Fixed cells were permeabilized and dyed with propidium iodide (PI). Cell cycle data were acquired on a flow cytometer and analyzed using Flow-Jo software. Data are expressed as mean ± SEM (n=3). The percentage of cells in each phase were plotted using Prism 8.0.
(§4) Cell cycle analysis. […] Following treatment, cells were harvested by trypsinization and washed twice in ice-cold PBS. Cells were then fixed in 70% ethanol at 4° C. for 30 minutes. Fixed cells were pelleted by centrifugation at 230 g for 5 minutes and the cell pellet was incubated in Krishan’s solution (3.8 mM sodium citrate (Fisher Scientific), 0.014 mM propidium iodide (AnaSpec, Fermont, Ca), 1% NP-40 (Sigma) and 2.0 mg/mL RNase A (Fisher Scientific)) for 30 minutes at 37° C. Cells were then centrifuged and washed in PBS prior to analysis using a FacScallibur flow cytometer. The data from flow cytometry were subjected to further analysis by CellQuest software version 3.3. DNA histograms generated indicate the fractions of the cell population in the sub-G1, G0-G1, S, or G2/M phase of the cell cycle.
(§5) To investigate the biological effect associated with decreased cell viability, cell cycle analysis was performed on the same four cell lines using propidium iodide staining and measured by flow cytometry 24 hours after treatment of cells with 10 µM E2-PROTAC or partial PROTAC (FIG. 30).

SKBR3 cells = assay: as above; assay type: cell-based, human; details: SKBR3, 10 µM, 24 hours
Excerpt: as §3, §4, §5

MDA-MB-231 cells = assay: as above; assay type: cell-based, human; details: MDA-MB-231, 10 µM, 24 hours
Excerpt: as §3, §4, §5

HCC1806 cells = assay: as above; assay type: cell-based, human; details: HCC1806, 10 µM, 24 hours
Excerpt: as §3, §4, §5

HCC 1806 and SKBR3 cells = assay: Survivability of breast cancer cells (Example 1); details: HCC 1806 and SKBR3, 24 hours of treatment
ERα = biological target: T3, ERα (Homo sapiens, UniProt P03372); assay: Immunostaining of endogenous receptors in MCF-7 cells; details: MCF-7, 1 hour
T3 sequence (P03372 1-595): T1 sequence (P03372 1-595)

[2] = increasing doses, 1 hour, partial PROTAC 100 µM

## Cc1ncsc1-c1ccc(CNC(=O)C2CC(O)CN2C(=O)C(NC(=O)COCCOCCOCCOCC(=O)OC2CCC3C4CCc5cc(O)ccc5C4CCC23C)C(C)(C)C)cc1 (stereo not shown) [UI-EP001]
HiBiT-ERα; 100 µM, as early as 1 h
  reduction in expression level of recombinant ER: 50%
HiBiT-ERα; [2]
  change of HiBiT-ERα: dose-dependent decrease
GPER
  plasma membrane and total GPER: reduced plasma membrane and total GPER
HiBiT-GPER; 100 µM, as early as 1 h
  reduction in expression level of recombinant GPER: 50%
HiBiT-GPER; 1 hour treatment, detergent-permeabilized cells, read-out: DC50 (concentration required for 50% protein degradation), GPER
  DC50: 100 µM
HiBiT-GPER; [2]
  change of HiBiT-GPER: dose-dependent decrease
[1]
  surface recombinant GPER / HA-GPER expression: causes downmodulation of surface recombinant GPER; also recorded: Significant degradation of GPER was observed
MCF-7 cells
  cell cycle distribution: dramatic increase in the G2/M peak
SKBR3 cells
  cell cycle distribution: dramatic increase in the G2/M peak
MDA-MB-231 cells
  cell cycle distribution: This shift was not observed
HCC1806 cells
  cell cycle distribution: dramatic increase in the G2/M peak
HCC 1806 and SKBR3 cells
  survivability compared to partial PROTAC: lower survivability
ERα
  nuclear ERα expression: Clear site-specific reduction

— patent publication US20230312639A1, “GPER PROTEOLYTIC TARGETING CHIMERAS” (University of Iowa Research Foundation, priority 2020, published 2023)
